Data set [1] concerns the target T1, Fatty acid-binding protein, adipocyte (Homo sapiens, UniProt P15090).
Description: Displacement of 1,8-ANS from FABP4 (unknown origin) after 3 mins by fluorescence assay
Data set [2] deals with Fatty acid-binding protein, heart (Homo sapiens, UniProt P05413). Put plainly: Inhibition of FABP3 (unknown origin).
Data set [3] concerns Mus musculus. Put plainly: Antidiabetic activity in C57BL/Ksj db/db mouse assessed as reduction in fasting blood glucose level at 100 mg/kg, po administered once daily via lavage for 14 to 35 days relative to control. The data set is classed as functional. Set-up: scale not given: the % may be the effect or the level left.
Data set [4] has as its system Mus musculus. Briefly: Hepatotoxicity in C57BL/Ksj db/db mouse at 100 mg/kg, po administered once daily via lavage for 5 weeks measured daily during compound dosing. The data set is classed as toxicity, organism-based. To be noted: in vivo, 840 h.
In data set [5] the test system is Mus musculus. Put plainly: Toxicity in C57BL/Ksj db/db mouse assessed as effect on abdominal adipose tissue lipid content at 100 mg/kg, po administered once daily via lavage for 5 weeks measured daily during compound dosing. To be noted: in vivo, 840 h. The data set is classed as organism-based.
The nature of data set [6]: Stability in human liver microsomes assessed as parent compound remaining at 0.1 uM after 60 mins by HPLC-MS/MS analysis. The format is ADME, microsome. To be noted: read-out: Stability. A general note: Microsomes from liver hold many membrane-bound enzymes, among them those of drug oxidation.
Data set [7] relates to Mus musculus. Put plainly: Effect on total cholesterol levels in C57BL/Ksj db/db mouse at 100 mg/kg, po administered once daily via lavage for 2 to 4 weeks. The conditions noted are these: in vivo. The data set is classed as ADME, organism-based.
Data set [8] has as its system Mus musculus. Briefly: Renal toxicity in C57BL/Ksj db/db mouse at 100 mg/kg, po administered once daily via lavage for 5 weeks measured daily during compound dosing. The data set is classed as organism-based. To be noted: in vivo, 840 h.
Another data set can be described thus: in vitro. The conditions noted are these: mouse, plasma.
Data set [9] in a line: Half life in human liver microsomes at 0.1 uM by HPLC-MS/MS analysis. The format is ADME, microsome.
Data set [10] is described as follows: Intrinsic clearance in human liver microsomes assessed per gram of protein at 0.1 uM by HPLC-MS/MS analysis. The format is ADME, microsome.
The nature of data set [11]: Half life in rat liver microsomes at 0.1 uM by HPLC-MS/MS analysis. The format is ADME, microsome.
A short description of data set [12]: Stability in mouse liver microsomes assessed as parent compound remaining at 0.1 uM after 60 mins by HPLC-MS/MS analysis. To be noted: read-out: Stability. The format is ADME, microsome.
Data set [13] can be described thus: Intrinsic clearance in mouse liver microsomes assessed per gram of protein at 0.1 uM by HPLC-MS/MS analysis. The data set is classed as ADME, microsome.
The subject of another data set is 3T3-L1. Put plainly: Cytotoxicity against mouse 3T3L1 pre-adipocytes assessed as effect on cell viability up to 80 uM after 24 hrs by MTT assay. The format is cell-based. The conditions noted are these: 3t3-l1, 24 h.
Data set [14] in a line: Half life in mouse liver microsomes at 0.1 uM by HPLC-MS/MS analysis. The data set is classed as ADME, microsome.
For data set [15], the system named is Mus musculus. Put plainly: Toxicity in C57BL/Ksj db/db mouse assessed as body weight loss at 100 mg/kg, po administered once daily via lavage for 5 weeks measured daily during compound dosing. The data set is classed as organism-based. To be noted: in vivo, 840 h.
The nature of data set [16]: Stability in rat liver microsomes assessed as parent compound remaining at 0.1 uM after 60 mins by HPLC-MS/MS analysis. The data set is classed as ADME, microsome. The conditions noted are these: read-out: Stability.
Data set [17] relates to Mus musculus. Briefly: Toxicity in C57BL/Ksj db/db mouse assessed as effect on pancreas at 100 mg/kg, po administered once daily via lavage for 5 weeks measured daily during compound dosing. The conditions noted are these: in vivo, 840 h. The format is organism-based.
Data set [18] is described as follows: Intrinsic clearance in rat liver microsomes assessed per gram of protein at 0.1 uM by HPLC-MS/MS analysis. The format is ADME, microsome.
For data set [19], the target named is T1, Fatty acid-binding protein, adipocyte. Put plainly: Binding affinity to FABP4 (unknown origin) by isothermal calorimetric titration method. A general note: ITC needs no label: the signal is the heat of the interaction.

Sequence of Fatty acid-binding protein, heart (P05413 whole entry): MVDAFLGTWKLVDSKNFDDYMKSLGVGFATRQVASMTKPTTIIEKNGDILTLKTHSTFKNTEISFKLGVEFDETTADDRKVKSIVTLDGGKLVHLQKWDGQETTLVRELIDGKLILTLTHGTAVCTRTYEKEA
T1 sequence (P15090 whole entry): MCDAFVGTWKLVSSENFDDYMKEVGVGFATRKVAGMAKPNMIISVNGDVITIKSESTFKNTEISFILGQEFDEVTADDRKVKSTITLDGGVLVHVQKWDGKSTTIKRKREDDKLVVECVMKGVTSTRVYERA
Description for in vitro: Protein binding in mouse plasma at 1 uM after 16 hrs by LC-MS/MS analysis

As to `O=C(O)CSCC(=O)Nc1cc(Cl)cc(Cl)c1`, the Ki in data set [1] turned out to be 1660 nM.

In data set [1], `O=C(O)CCCCNS(=O)(=O)c1ccc(Cl)c2ccccc12` returned a Ki of 1850 nM.

Turning to `COc1ccc(S(=O)(=O)NCc2ccc(C(=O)O)cc2)c2ccccc12`, the affinity in data set [1] corresponds to a Ki of 760 nM.

With `COc1ccc(S(=O)(=O)Nc2cc(C(=O)O)ccc2Cl)c2ccccc12`, the affinity in data set [1] corresponds to a Ki of 930 nM.

`COc1ccc(S(=O)(=O)NCc2cccc(C(=O)O)c2)c2ccccc12` registered an inhibition constant (Ki) in data set [1] of 2120 nM.

In the case of `COc1ccc(S(=O)(=O)Nc2cc(C(=O)O)c(F)cc2F)c2ccccc12`, in data set [1], the IC50 came to 1840 nM and the Ki is 230 nM. Moreover, in data set [2], the IC50 is over 100000 nM.

Turning to `Cc1c(C)c(C)c(S(=O)(=O)NCCCCC(=O)O)c(C)c1C`, the Ki in [1] was found to be 910 nM.

Molecule `O=C(O)CCCCCNS(=O)(=O)c1cc(Cl)cc(Cl)c1` showed a Ki in data set [1] of 4840 nM.

In data set [1], `COc1ccc(S(=O)(=O)Nc2ccc(C(=O)O)cc2)c2ccccc12` yielded a Ki of 1280 nM.

Molecule `COc1ccc(C(=O)O)cc1NS(=O)(=O)c1ccc(OC)c2ccccc12` gave a Ki in data set [1] of over 6140 nM.

Molecule `COc1ccc(S(=O)(=O)Nc2cccc(CCC(=O)O)c2)c2ccccc12` yielded an inhibitory constant (Ki) in [1] of 580 nM.

`COc1ccc(S(=O)(=O)Nc2ccc(F)c(C(=O)O)c2)c2ccccc12`: the Activity in the data set on Mus musculus [3] is recorded as 20 - 35%; in the data set with Mus musculus [4], “Non-Toxic”; in the data set with Mus musculus [5], “Non-Toxic”; in the data set on Mus musculus [7], “Non-Toxic”; in the data set on Mus musculus [8] it was “Non-Toxic”; in the data set on 3T3-L1 it was “Non-Toxic”. The Activity entry in the data set on Mus musculus [15] and in the data set with Mus musculus [17] was “Non-Toxic” in each case. Further, the remaining at 1 h, 0.1 µM in [6] amounted to 72.3%; in [12], 96.9%; in data set [16], 93.4%. This molecule showed a fraction unbound at 16 h, 1 µM in the data set “in vitro” of 0.0147. Also, the half-life at 0.1 µM was 4.66 h in [9], 11.1 h in [11] and 24.6 h in data set [14]. For the same molecule, the values for the IC50 in data set [1] and in data set [2] were 1690 nM and over 100000 nM, respectively. This molecule also returned a Ki in [1] of 210 nM. The values for the CLint in data set [10], in [13] and in [18] were 7.51 mL/min/g, 1.4 mL/min/g and 3.15 mL/min/g, respectively.

`COc1ccc(S(=O)(=O)Nc2cc(Cl)cc(C(=O)O)c2)c2ccccc12` displayed a Ki in data set [1] of 820 nM.

`O=C(O)CCNS(=O)(=O)c1cc(Cl)cc(Cl)c1` yielded a Ki in [1] of 6510 nM.

As for `O=C(O)CCCCNS(=O)(=O)c1ccc(Br)c2ccccc12`, affinity in [1] was put at a Ki of 1160 nM.

In data set [1], `COc1ccc(S(=O)(=O)Nc2cccc(C(=O)O)c2)c2ccccc12` came in with an IC50 of 3220 nM and a Ki of 400 nM. For the same molecule, the IC50 in [2] is over 100000 nM.

The molecule `Cc1cc(C)c(C)c(S(=O)(=O)NCCCCC(=O)O)c1C` yielded a Ki in data set [1] of 1950 nM.

Take `COc1ccc(S(=O)(=O)Nc2cc(F)cc(C(=O)O)c2)c2ccccc12`: in data set [1], the Ki is 1150 nM.

`COc1ccc(S(=O)(=O)Nc2cc(C(=O)O)ccc2C)c2ccccc12`: the affinity in [1], expressed as Ki, was 2760 nM.

In data set [1], `O=C(O)CCCNC(=O)c1cc(Cl)cc(Cl)c1` yielded a Ki of 4320 nM.

Take `O=C(O)CCCCNS(=O)(=O)c1ccc(F)c2ccccc12`: the Ki in [1] was found to be 2160 nM.

For the molecule `COc1ccc(S(=O)(=O)Nc2ccc(CC(=O)O)cc2)c2ccccc12`, in data set [1], the affinity, expressed as Ki, was 1670 nM.

For `O=C(O)CCCCNS(=O)(=O)c1cc(Cl)cc(Cl)c1`, the affinity in data set [1], expressed as Ki, was 1190 nM.

In [1], `COc1ccc(S(=O)(=O)NC(C)c2cccc(C(=O)O)c2)c2ccccc12` (configuration not stated) had an inhibition constant (Ki) of over 6140 nM.

Consider `COc1ccc(S(=O)(=O)Nc2cc(C(=O)O)ccn2)c2ccccc12`, for which the Ki in [1] is over 6140 nM.

Take `COc1ccc(S(=O)(=O)Nc2cncc(C(=O)O)c2)c2ccccc12`: the inhibition constant (Ki) in [1] was over 6140 nM.

With `COc1ccc(S(=O)(=O)Nc2cccc(C(=O)O)c2C)c2ccccc12`, in data set [1], the Ki was over 6140 nM.

In data set [1], `O=C(O)CCCNS(=O)(=O)c1cc(Cl)cc(Cl)c1` registered a Ki of 2550 nM.

In turn, `COc1ccc(S(=O)(=O)Nc2cccc(CC(=O)O)c2)c2ccccc12` returned a Ki in [1] of 840 nM.

For `COc1ccc(S(=O)(=O)Nc2cccc(C(=O)O)c2F)c2ccccc12`, the affinity in data set [1], expressed as Ki, was 7750 nM. The molecule also displayed a Kd in data set [19] of 6030 nM.

The molecule `COc1ccc(S(=O)(=O)Nc2ccc(F)c(C(=O)O)c2F)c2ccccc12` yielded a Ki in [1] of 7380 nM.

With `Cc1cc(C)c(S(=O)(=O)NCCCCC(=O)O)c(C)c1`, the affinity in data set [1] corresponds to a Ki of 2690 nM.

As to `COc1ccc(S(=O)(=O)Nc2ccc(C)c(C(=O)O)c2)c2ccccc12`, in data set [1], the inhibition constant Ki is over 6140 nM.

Take `COc1ccc(S(=O)(=O)Nc2cc(C(=O)O)ccc2F)c2ccccc12`: the Activity is 20 - 35% in the data set on Mus musculus [3]; “Non-Toxic” in the data set on Mus musculus [4]; “Non-Toxic” with Mus musculus [5]; “Non-Toxic” in the data set with Mus musculus [7]; “Non-Toxic” in the data set on Mus musculus [8]; “Non-Toxic” in the data set on 3T3-L1. Further, the Activity result in the data set on Mus musculus [15] and in the data set with Mus musculus [17] was “Non-Toxic” in each case. In addition, the remaining at 1 h, 0.1 µM in [6] was determined as 73.6%; in data set [12], 94.8%; in data set [16], 93.9%. Besides, the half-life at 0.1 µM in [9] is 4.99 h; in data set [11], 12.1 h; in data set [14] it was 14.3 h. The CLint came to 7.02 mL/min/g in [10], 2.4 mL/min/g in data set [13] and 2.9 mL/min/g in data set [18]. The molecule further had an IC50 in data set [2] of over 100000 nM.

`CC(C)NCC(O)COc1cccc2ccccc12` (configuration not stated) [PROPRANOLOL] had a fraction unbound at 16 h, 1 µM in “in vitro” of 0.109.

What is called Ki is the dissociation constant of the complex between target and ligand, obtained from inhibition or displacement. The term IC50 denotes the concentration needed to halve the response being measured. Broadly, the fraction unbound is free concentration divided by total concentration. What is called half-life is how long it takes for the measured level to halve. The term Kd denotes a measure of binding affinity in units of concentration.

Source of the values: ChEMBL document CHEMBL4270520, “From hit to lead: Structure-based discovery of naphthalene-1-sulfonamide derivatives as potent and selective inhibitors of fatty acid binding protein 4” (Eur J Med Chem, 2018).
